Patent US20180271873A1, “METHODS FOR TREATING VIRAL INFECTIONS” (priority 2015, published 2018)

What follows are compounds tested on GFP-expressing Zaire Ebolavirus Mayinga-GFP (assay: microbe, parasite or virus in culture). Conditions: HeLa, read-out: Activity (Biological activity, EC50).
Type: cell-based

`Cc1cccc(/C=N/Nc2cc(N3CCOCC3)nc(OCc3nc(C)cc(C)n3)n2)c1` [Compound 59, (E)-4-(2-((4,6-Dimethylpyrimidin-2-yl)methoxy)-6-(2-(3-methylbenzylidene)hydrazinyl)pyrimidin-4-yl)morpholine] and `Cc1cccc(/C=N/Nc2cc(N3CCOCC3)nc(OCc3ncc(Cl)cn3)n2)c1` [Compound 52, (E)-4-(2-((5-Chloropyrimidin-2-yl)methoxy)-6-(2-(3-methylbenzylidene)hydrazinyl)pyrimidin-4-yl)morpholine] cannot be ordered by EC50: under 1 µM for the first, under 1 µM for the second.

`Cc1cccc(/C=N/Nc2cc(N3CCOCC3)nc(OCC(C)c3ccccn3)n2)c1` (centres unmarked) [Compound 13, (E)-4-(6-(2-(3-Methylbenzylidene)hydrazinyl)-2-(2-(pyridin-2-yl)propoxy)pyrimidin-4-yl)morpholine] and `Cc1cccc(/C=N/Nc2cc(N3CCOCC3)nc(Oc3ccccn3)n2)c1` [Compound 25, (E)-4-(6-(2-(3-Methylbenzylidene)hydrazinyl)-2-(pyridin-2-yloxy)pyrimidin-4-yl)morpholine] cannot be ordered by EC50: under 1 µM for the first, under 1 µM for the second.

Compared with `CS(=O)(=O)c1cccc(/C=N/Nc2cc(N3CCOCC3)nc(OCCc3ccccn3)n2)c1` [Compound 61, (E)-4-(6-(2-(3-(Methylsulfonyl)benzylidene)hydrazinyl)-2-(2-(pyridin-2-yl)ethoxy)pyrimidin-4-yl)morpholine], `N#Cc1cccc(/C=N/Nc2cc(N3CCOCC3)nc(OCCc3ccccn3)n2)c1` [Compound 48, (E)-3-((2-(6-Morpholino-2-(2-(pyridin-2-yl)ethoxy)pyrimidin-4-yl)hydrazono)methyl)benzonitrile] is lower in EC50: over 50 µM for the first, 1 to 50 µM for the second.

First: Cc1cccc(/C=N/Nc2cc(N3CCN(C)CC3)nc(OCCc3ccccn3)n2)c1 [Compound 42, (E)-4-(2-(3-Methylbenzylidene)hydrazinyl)-6-(4-methylpiperazin-1-yl)-2-(2-(pyridin-2-yl)ethoxy)pyrimidine]
Second: Cc1cccc(/C=N/Nc2cc(N3CCSCC3)nc(OCCc3ccccn3)n2)c1 [Compound 26, (E)-4-(6-(2-(3-Methylbenzylidene)hydrazinyl)-2-(2-(pyridin-2-yl)ethoxy)pyrimidin-4-yl)thiomorpholine]
The EC50 of the first is higher: over 50 µM for the first, 1 to 50 µM for the second. The second is the more potent here.

First: FC(F)(F)c1cccc(/C=N/Nc2cc(N3CCOCC3)nc(OCCc3ccccn3)n2)c1 [Compound 33, (E)-4-(2-(2-(Pyridin-2-yl)ethoxy)-6-(2-(3-(trifluoromethyl)benzylidene)hydrazinyl)pyrimidin-4-yl)morpholine]
Second: C(=N\Nc1cc(N2CCOCC2)nc(OCCc2ccccn2)n1)/c1ccccc1 [Compound 46, (E)-4-(6-(2-Benzylidenehydrazinyl)-2-(2-(pyridin-2-yl)ethoxy)pyrimidin-4-yl)morpholine]
The EC50 of the first is lower: under 1 µM for the first, 1 to 50 µM for the second. The first is the more potent here.

First: Cc1cccc(/C=N/Nc2nc(OCCc3ccccn3)nc(N3CCOCC3)c2Cl)c1 [Compound 39, (E)-4-(5-Chloro-6-(2-(3-methylbenzylidene)hydrazinyl)-2-(2-(pyridin-2-yl)ethoxy)pyrimidin-4-yl)morpholine]
Second: Cc1cccc(/C=N/Nc2nc(OCCc3ccccn3)nc(N3CCOCC3)c2C)c1 [Compound 32, (E)-4-(5-Methyl-6-(2-(3-methylbenzylidene)hydrazinyl)-2-(2-(pyridin-2-yl)ethoxy)pyrimidin-4-yl)morpholine]
The EC50 of the first is higher: over 50 µM for the first, 1 to 50 µM for the second.

`Cc1cccc(/C=N/Nc2cc(N3CCOCC3)nc(Oc3ccc4nc(C)ccc4c3)n2)c1` [Compound 62, (E)-4-(6-(2-(3-Methylbenzylidene)hydrazinyl)-2-(2-methylquinolin-6-yloxy)pyrimidin-4-yl)morpholine] and `Cc1cccc(/C=N/Nc2cc(N3CCOCC3)nc(OCc3ccccc3)n2)c1` [Compound 47, (E)-4-(2-(Benzyloxy)-6-(2-(3-methylbenzylidene)hydrazinyl)pyrimidin-4-yl)morpholine] cannot be ordered by EC50: under 1 µM for the first, under 1 µM for the second.

First: Cc1cccc(/C=N/Nc2cc(N3CCOCC3)nc(OCC(F)(F)c3ccccc3)n2)c1 [Compound 45, (E)-4-(2-(2,2-Difluoro-2-phenylethoxy)-6-(2-(3-methylbenzylidene)hydrazinyl)pyrimidin-4-yl)morpholine]
Second: Cc1cccc(/C=N/Nc2cc(N3CCOCC3)nc(OCCc3ncccn3)n2)c1 [Compound 23, (E)-4-(6-(2-(3-Methylbenzylidene)hydrazinyl)-2-(2-(pyrimidin-2-yl)ethoxy)pyrimidin-4-yl)morpholine]
The EC50 of the first is higher: 1 to 50 µM for the first, under 1 µM for the second. The second is the more potent here.

First: Cc1cccc(/C=N/Nc2cc(C3CCOCC3)nc(OCCc3ccccn3)n2)c1 [Compound 41, (E)-4-(2-(3-Methylbenzylidene)hydrazinyl)-2-(2-(pyridin-2-yl)ethoxy)-6-(tetrahydro-2H-pyran-4-yl)pyrimidine]
Second: Cc1ccc(/C=N/Nc2cc(N3CCOCC3)nc(OCCc3ccccn3)n2)cc1 [Compound 56, (E)-4-(6-(2-(4-Methylbenzylidene)hydrazinyl)-2-(2-(pyridin-2-yl)ethoxy)pyrimidin-4-yl)morpholine]
The EC50 of the first is higher: over 50 µM for the first, under 1 µM for the second.

`C(=N\Nc1cc(N2CCOCC2)nc(OCCc2ccccn2)n1)/c1ccncc1` [Compound 17, (E)-4-(2-(2-(Pyridin-2-yl)ethoxy)-6-(2-(pyridin-4-ylmethylene)hydrazinyl)pyrimidin-4-yl)morpholine] and `C(=N\Nc1cc(N2CCOCC2)nc(OCCc2ccccn2)n1)/c1cncnc1` [Compound 12, (E)-4-(2-(2-(Pyridin-2-yl)ethoxy)-6-(2-(pyrimidin-5-ylmethylene)hydrazinyl)pyrimidin-4-yl)morpholine] cannot be ordered by EC50: over 50 µM for the first, over 50 µM for the second.

Going from `Cc1cccc(/C=N/Nc2cc(N3CCOCC3)nc(OCCc3ccc(N4CCOCC4)cn3)n2)c1` [Compound 57] to `Cc1cccc(/C=N/Nc2cc(N3CCOCC3)nc(OC(C)c3ncccn3)n2)c1` (centres unmarked) [Compound 49, (E)-4-(6-(2-(3-Methylbenzylidene)hydrazinyl)-2-(1-(pyrimidin-2-yl)ethoxy)pyrimidin-4-yl)morpholine], the EC50 falls from over 50 µM to under 1 µM. The second is the more potent here.

`Cc1cccc(/C=N/Nc2cc(N3CCOCC3)nc(-c3cccc(O)c3)n2)c1` [Compound 27, (E)-3-(4-(2-(3-Methylbenzylidene)hydrazinyl)-6-morpholinopyrimidin-2-yl)phenol] showed an EC50 of 1 to 50 µM.
